The test system of series [1] is Aspergillus niger. As to the kind of experiment: Agar diffusion, inhibition zone (ZOI) and activity index. Particulars: Aspergillus niger; 10^−3 M in DMF, 5 mm holes, 7 days at 30°C. A general note: A growth-free zone around the sample is the usual read-out of agar diffusion tests.
In series [2] the test system is Bacillus subtilis. As to the kind of experiment: MIC / MBC determination.
For series [3], the system named is Staphylococcus aureus. As to the kind of experiment: MIC / MBC determination.
The subject of series [4] is Aspergillus terreus. Nature of the series: MIC determination.
Series [5] has as its system Aspergillus terreus. Nature of the series: Agar diffusion, inhibition zone (ZOI) and activity index. To be noted: for ZOI: 10^−3 M in DMF, 5 mm holes, 7 days at 30°C; for AI: ZOI of compound / ZOI of standard (colitrimazole) × 100.
The nature of series [6]: Serum liver function enzymes in high-fat diet mice. The format is in vivo. Particulars: HFD C57BL/6 mice, 4 mg kg^−1 body weight, 3 months, mean ± SD. The protocol: (§1) This study employed 8‐week‐old male C57BL/6 mice of matched weight (around 20–25 g) from an inbred “genetically identical” strain. The mice were purchased from the National Research Center's Animal House. Then, they were subdivided into five groups, each group containing eight mice; four groups were treated with CETZ.2HCl (antihistamine drug) and its metal complexes, whereas one group was left untreated and classified as a control group. Animals were housed in modular plastic veterinary cages at air‐conditioned room, under pathogen‐free conditions. Mice were fed HFD, which consisted of carbs 42.0%, fat 23.0%, protein 17.0%, fiber 3.0%, minerals 5.0%, and moisture 10.0% for 3 months, together with administration of either CETZ.2HCl or its metal complexes (4 mg kg ^−1 body weight) in DMF [37]. Experiments were performed in accordance with the regulations of the Animal Care and Use Committee of the College of Veterinary Medicine, Mansoura University (MU‐ACUC), Egypt; MU‐ACUC (PHARM.R.24.02.30), complied with “Guide for the Care and Use of Laboratory Animals” (National Research Council publication 8th ed., USA, 2011).
(§2) Specimens of blood were gathered from the retro‐orbital sinus, under halothane (1.5 percent v/v halothane in oxygen) anesthesia via inhalation. The collected blood was allowed to clot, by centrifugation at 1600 rpm for 20 min, to obtain serum. Isolated sera were maintained at −80°C until tests of liver function in addition to lipid profiles were performed. For estimation of L. lipase activity, fluorometric L. lipase activity assay kit was utilized following the manufacturer's protocol (Cat. No. STA‐610, Cell BIOLABS INC., San Diego, USA). Serum T. chol. LDL, HDL, TG, ALT (alanine aminotransferase), AST (aspartate aminotransferase), and ALP (alkaline phosphatase) were examined with Roche kits using COBAS Integra 400 and COBAS Integra‐400 plus (Roche Diagnostics Limited, Switzerland).

Series [7] deals with Bacillus subtilis. Nature of the series: Agar diffusion, inhibition zone (ZOI) and activity index. Particulars: Bacillus subtilis; for ZOI: 10^−3 M in DMF, 5 mm holes, 20 h at 37°C; for AI: ZOI of compound / ZOI of standard (ampicillin) × 100.
For series [8], the system named is Salmonella typhi. The series is described as above. The format is cell-based. To be noted: Salmonella typhi; for ZOI: 10^−3 M in DMF, 5 mm holes, 20 h at 37°C; for AI: ZOI of compound / ZOI of standard (gentamicin) × 100.
In series [9] the test system is Salmonella typhi. As to the kind of experiment: MIC / MBC determination. The format is cell-based.
The nature of series [10]: Serum lipid profile in high-fat diet mice. The format is in vivo. To be noted: HFD C57BL/6 mice, 4 mg kg^−1 body weight, 3 months, mean ± SD. The method, then:
as §1, §2

Series [11] relates to Staphylococcus aureus. Nature of the series: Agar diffusion, inhibition zone (ZOI) and activity index. Particulars: Staphylococcus aureus.
In series [12] the test system is Escherichia coli. As to the kind of experiment: MIC / MBC determination.
The subject of series [13] is Aspergillus niger. As to the kind of experiment: MIC determination.
Series [14] concerns lipoprotein lipase (L. lipase). As to the kind of experiment: Serum L. lipase activity in high-fat diet mice (fluorometric kit). To be noted: HFD C57BL/6 mice; for L. lipase (serum enzyme activity): 4 mg kg^−1 body weight in DMF, 3 months, mean ± SD; for mean L. lipase activity: rounded, 4 mg kg^−1 body weight. The format is in vivo. The protocol:
as §1, §2

Series [15] has as its system Escherichia coli. As to the kind of experiment: Agar diffusion, inhibition zone (ZOI) and activity index. Particulars: Escherichia coli; for ZOI: 10^−3 M in DMF, 5 mm holes, 20 h at 37°C; for AI: ZOI of compound / ZOI of standard (gentamicin) × 100.
Series [16] has as its system Bacillus subtilis. To be noted: cited from earlier work; for Bacillus subtillis (inhibition zone): in mm.
For series [17], the system named is Escherichia coli. To be noted: cited from earlier work; for Escherichia coli (inhibition zone): in mm.
The test system of series [18] is Staphylococcus aureus. Particulars: cited from earlier work; for Staphylococcus aureus (inhibition zone): in mm.
[19] abbreviates: Table 9, preceding research ref [9].
Setting [20] is: Table 9, preceding research ref [7].
Where [21] appears, read: Table 9, preceding research ref [11].

By MIC is commonly meant the least concentration at which growth counts as inhibited. Low readings indicate a more susceptible organism, high ones a less susceptible organism. As a reminder, the MBC is the smallest concentration meeting the test's criterion for killing.

Where “and” joins values, the source holds several entries; their conditions need not be identical. Identical values can stand only once. Counter-ions that a name gives are not always drawn. Like-named read-outs stand apart in the source and are kept apart here.

Turning to `O=C(O)COCCN1CCN(C(c2ccccc2)c2ccc(Cl)cc2)CC1` (racemic) [CETZ.2HCl, (RS)‐2‐[2‐[4‐[(4‐chlorophenyl)phenylmethyl]piperazine‐L‐yl]‐ethoxy]acetic acid, dihydrochloride, reference compound], the ZOI was 12.5 ±0.36 mm in series [1]; 10.3 ±0.27 mm in series [5]; 12.1 ± 0.15 mm in series [7]; 7.7 ±0.58 mm in [8]; 9.4 ± 0.02 mm in series [11] (10^−3 M in DMF, 5 mm holes, 20 h at 37°C); 8.5 ±0.50 mm in series [15]. The MIC in [2] was 0.05 µg/mL; in series [3], 0.025 µg/mL and 0.025 ± 0.02 µg/mL; in [4] it was 0.025 µg/mL and 0.025 ± 0.01 µg/mL; in series [12], 0.075 ± 0.01 µg/mL; in [13], 0.025 µg/mL and 0.025 ± 0.01 µg/mL. The minimal bactericidal concentration (MBC) was 0.049 µg/mL and 0.049 ± 0.01 µg/mL in series [3]; 0.037 ± 0.01 µg/mL in series [9] (Salmonella enterica, TYPHI); 0.091 µg/mL in [12]. The AI is 58.9% in series [5]; 42.6% in [7]; 37.2% in [8]; 41.4% in [11] (ZOI of compound / ZOI of standard (ampicillin) × 100); 43.6% in series [15]. In series [6], this molecule gave an ALP of 90.5 ± 16.79 U L^−1. The molecule further showed an ALT in series [6] of 245.63 ± 43.99 U L^−1. The molecule also returned an AST in series [6] of 345.5 ± 57.73 U L^−1. Also, the HDL in series [10] came out at 85.25 ± 6.23 mg/dL. The same molecule gave an LDL in series [10] of 93.25 ± 8.15 mg/dL. Moreover, in series [10], the “Total Chol.” value came to 230.38 mg/dL. Also, the Trig in series [10] was 80.5 ± 10.18 mg/dL. The “L. lipase (serum enzyme activity)” value in [14] was 104.88± 26.5 U/L and 104.88 U/L. The “mean L. lipase activity” value in series [14] was found to be 104.9 U L^−1.

For `O.c1cnc2c(c1)ccc1cccnc12` [Phen.H2O, 1,10‐phenanthroline monohydrate], in series [2], the MBC was 0.032 µg/mL; the MIC is 0.025 µg/mL and 0.025 ± 0.03 µg/mL. In series [7], the ZOI worked out at 1.1 ± 0.16 mm and the AI was found to be 3.87%.

Take `O.O.O.O=C([O-])COCCN1CCN(C(c2ccccc2)c2ccc(Cl)cc2)CC1.O=C([O-])COCCN1CCN(C(c2ccccc2)c2ccc(Cl)cc2)CC1.[Cu+2]` (centres unmarked) [[Cu(CETZ)2(H2O)2].H2O]: the “Bacillus subtillis (inhibition zone)” value in [16] (setting [19]) is listed as 18.31 ± 0.55. Besides, the “Escherichia coli (inhibition zone)” value in series [17] (setting [19]) is 13.43 ± 0.39. Moreover, in series [18] (setting [19]), the “Staphylococcus aureus (inhibition zone)” value is on record as 15.21 ± 0.46.

`CC(N)C(=O)[O-].O.O=C([O-])COCCN1CCN(C(c2ccccc2)c2ccc(Cl)cc2)CC1.[Cu+2]` (centres unmarked) [[Cu(CETZ)(Ala)(H2O)]]: the AI in series [16] (Table 9, Bacillus subtillis ref [7]) was 42.9; in series [17] (Table 9, Escherichia coli ref [7]), 52.91; in series [18] (Table 9, Staphylococcus aureus ref [7]), 56.93. Besides, in [16] (setting [20]), the “Bacillus subtillis (inhibition zone)” value is on record as 13.9 ± 0.3. In series [17] (setting [20]), the “Escherichia coli (inhibition zone)” value is reported as 11.8 ± 0.5. In addition, the “Staphylococcus aureus (inhibition zone)” value in series [18] (setting [20]) was 15.6 ± 0.4.

Take `CC(=O)[O-].O.O.O=C([O-])COCCN1CCN(C(c2ccccc2)c2ccc(Cl)cc2)CC1.[Cd+2].c1cnc2c(c1)ccc1cccnc12` (centres unmarked) [complex (3), [Cd(CETZ)(Phen)(H2O)2(CH3COO)]]: the MIC in series [2] was 0.075 ± 0.006 µg/mL. The MIC in series [4] was 0.100 µg/mL and 0.1 ± 0.01 µg/mL. Moreover, in series [5], the ZOI was 14.7 ^+ ^1 ±0.55 mm and the AI is reported as 84.0%. In series [6], this molecule showed an ALP of 123.63 ± 11.45 U L^−1, an ALT of 283.75 ± 23.49 U L^−1 and an AST of 374.88 ± 36.33 U L^−1. In series [7], the ZOI is recorded as 32.0 ^+ ^3 ±0.68 mm and the AI came to 112.68%. In [8], the ZOI was 19.5 ^+ ^2 ±0.85 mm and the AI worked out at 94.2%. Moreover, in [9] (Salmonella typhi), the minimal bactericidal concentration (MBC) came to 0.066 ± 0.014 µg/mL; the minimal inhibitory concentration (MIC) is 0.050 µg/mL and 0.050 ± 0.01 µg/mL. Moreover, in series [10], the HDL was determined as 44.63 ± 12.92 mg/dL, the LDL came to 89.25 ± 9.45 mg/dL, the “Total Chol.” value was 283.75 mg/dL and the Trig came to 188.75 mg/dL. Further, in series [12], the MBC is 0.23 ± 0.053 µg/mL and the MIC was determined as 0.1 ± 0.02 µg/mL. In series [14], the “L. lipase (serum enzyme activity)” value amounted to 52.38 U/L and the “mean L. lipase activity” value is listed as 52.4 U L^−1. The “L. lipase (serum enzyme activity)” value in series [14] (listed as Cd-CETZ Complex) is 52.38±9.6 U/L. Besides, in series [15], the ZOI was 28.5 ^+ ^2 ±0.83 mm and the AI is listed as 146.1%.

Take [Cu(AMBI)(CETZ)(NO3)(H2O)2]: the AI was 89.2 in series [16] (Table 9, Bacillus subtillis ref [11]); 95.10 in [17] (Table 9, Escherichia coli ref [11]); 96.72 in series [18] (Table 9, Staphylococcus aureus ref [11]). In addition, in [16] (setting [21]), the “Bacillus subtillis (inhibition zone)” value is recorded as 28.9 ± 0.3. Further, the “Escherichia coli (inhibition zone)” value in [17] (setting [21]) is 21.3 ± 0.4. For the same molecule, the “Staphylococcus aureus (inhibition zone)” value in series [18] (setting [21]) is given as 26.5 ± 0.6.

These data come from publication PMC12081029, “Structural, Spectroscopic, and Docking Analysis of N,O‐Donor Ligand Metal Complex Nanoparticles With Hypolipidemic Effects via Lipoprotein Lipase Activation in High‐Fat Diet Mice” (Chemistry & Biodiversity, 2024).
